Test results taken from patent US20130136809A1, “7-HYRDROXYFRULLANOLIDE ITS ANALOGS FOR PREVENTION CONTROL AND TREATMENT OF METABOLIC DISORDERS” (LAILA NUTRACEUTICALS, priority 2009, published 2013).

Experiments:
[1] = test system: 3T3-L1 pre-adipocyte cells; experiment: Inhibition of lipid accumulation in differentiated adipocytes (Oil Red O); format: cell-based, mouse; conditions: 3T3-L1 adipocytes; for inhibition at 2.5 µg/mL: 2.5 μg/mL
Experimental: One hundred thousand 3T3-L1 […] pre-adipocyte cells in Dulbecco's Modified Eagles Medium (DMEM) containing 10% Fetal Bovine Serum (FBS) were taken into each well of a 24-well plate and incubated for 48 h at 37° C. and 5% CO2. The differentiation of pre-adipocyte cells was initiated in a differentiation medium containing 10 μg/ml insulin, 1.0 μM dexamethasone, and 0.5 mM isobutylmethylxanthine (IBMX) for 48 h. After this the medium was replaced by DMEM containing 10 ug/ml insulin and incubated for 3 days. Then the differentiating cells were treated with […] of 7-hydroxyfrullanolide (1) or different natural analogs (structure numbers 3 to 11) or semi-synthetic analogs (structure numbers 12 to 25) of 7-HF. The cells were maintained in the medium for another 3-5 days. The cells incubated with 0.1% DMSO were considered as the vehicle control. After the incubation period, cells were washed with phosphate buffered saline (PBS) and fixed with 10% buffered formalin for 1 h at room temperature. One small aliquot of cell suspension was separated for cell counting in hemocytometer chamber. Fixed cells were stained with Oil Red O solution to measure the cellular neutral lipid accumulation. Briefly, cells were washed with PBS, fixed with 10% buffered formalin and stained with Oil Red O solution (0.5 g in 100 ml isopropanol) for […]. After removing the staining solution, the dye retained in the cells will be eluted into isopropanol and OD measured at 550 nm. The inhibition of fat accumulation in the treated cells was compared with the mock treated differentiated adipocytes. The treated and control cells were also analyzed and compared for inhibition of lipid accumulation visually under microscope and recorded digitally in suitable image capture system. The anti-adipogenic activity by 7-HF is depicted in Figure I and the percentage inhibition of lipid accumulation shown by 7-HF and its natural and semi-synthetic analogs is summarized in Table-1.

[2] = test system: 3T3-L1 pre-adipocyte cells; experiment: Pro-lipolytic activity in differentiated adipocytes (free glycerol release); format: cell-based, mouse; conditions: increase in glycerol release
Experimental: The lipolytic activity was assessed in mature adipocytes as per the procedure of Chemicon International, USA, by measuring free glycerol secreted into the culture medium. One hundred thousand 3T3-L1 […] pre-adipocyte cells in Dulbecco's Modified Eagles Medium (DMEM) containing 10% Fetal Bovine Serum (FBS) were taken into each well of a 24-well plate and incubated for 48 h at 37° C. and 5% CO2. The differentiation of pre-adipocyte cells was initiated in a differentiation medium containing 10 µg/ml insulin, 1.0 µM dexamethasone, and 0.5 mM isobutylmethylxanthine (IBMX). The cells were differentiated for 5 days and then the culture medium was removed. The monolayer was washed twice with wash solution (Hank's balanced salt solution), and then 250 µL of incubation solution (Hank's balanced salt solution plus 2% bovine serum albumin) was added to the wells in triplicate in presence or absence of 7-hydroxyfrullanolide or its analogs or the extracts containing 7-HF, and the cells were further incubated for 16 h. To measure lipolysis, 200 μL of free glycerol assay reagent was added to 25 µL of culture supernatants and controls containing glycerol standard. The samples and the controls were incubated for 15 min, and the absorbance was read at 540 nm. A standard curve constructed from the glycerol was used to calculate the concentration of free glycerol in the culture supernatants. The percentage increase in glycerol concentration in the sample solutions compared to the control containing the known concentrations of glycerol corresponds to the percentage acceleration of lipolysis by test compound.

For `CC1=C2[C@@H]3OC(=O)C(CN4CCCCC4)[C@]3(O)CC[C@@]2(C)CCC1` (stereo partly drawn) [Compound-19, (3aR,5aR,9bS)-3,3a,4,5,5a,6,7,8-octahydro-3a-hydroxy-5a,9-dimethyl-3-((piperidin-1-yl)methyl)naphtho[1,2-b]furan-2(9bH)-one], the inhibition at 2 µg/mL ([1]; Homo sapiens, 2.0 μg/mL) was 23.3%.

`CC1=CCC[C@]2(C)CCC3=C(CBr)C(=O)OC3=C12` [Compound-14, (R)-3-(bromomethyl)-5,5a,6,7-tetrahydro-5a,9-dimethylnaphtho[1,2-b]furan-2(4H)-one] gave an inhibition at 2 µg/mL ([1]; Homo sapiens, 2.0 μg/mL) of 14%.

In the case of `C=C1C(=O)O[C@@H]2[C@@]1(O)CC[C@@]1(C)CCCC(=C)[C@]21OO` [Compound-3, (3aR,5aR,9aR,9bR)-decahydro-9a-hydroperoxy-3a-hydroxy-5a-methyl-3,9-dimethylenenaphtho[1,2-b]furan-2(9bH)-one], the inhibition at 2.5 µg/mL ([1]; Homo sapiens) was 40.5% and the “% acceleration of lipolysis” value ([2]; 5 μg/mL) was 39.6%.

`CC1=C2[C@@H]3OC(=O)C(CN4CCOCC4)[C@]3(O)CC[C@@]2(C)CCC1O` (stereo partly drawn) [Compound-18, (3aR,5aR,9bS)-3,3a,4,5,5a,6,7,8-octahydro-3a,8-dihydroxy-5a,9-dimethyl-3-(morpholinomethyl)naphtho[1,2-b]furan-2(9bH)-one] showed an inhibition at 2.5 µg/mL ([1]; Homo sapiens) of 133%.

Work on `CC1=C2[C@@H]3OC(=O)C(CN4CCOCC4)[C@]3(O)CC[C@@]2(C)CCC1` (stereo partly drawn) [Compound-17, (3aR,5aR,9bS)-3,3a,4,5,5a,6,7,8-octahydro-3a-hydroxy-5a,9-dimethyl-3-(morpholinomethyl)naphtho[1,2-b]furan-2(9bH)-one] yielded an inhibition at 2 µg/mL ([1]; Homo sapiens, 2.0 μg/mL) of 36.2%.

For `CC1=C2[C@@H]3OC(=O)C(CN4CCNCC4)[C@]3(O)CC[C@@]2(C)CCC1` (stereo partly drawn) [Compound-22, (3aR,5aR,9bS)-3,3a,4,5,5a,6,7,8-octahydro-3a-hydroxy-5a,9-dimethyl-3-((piperazin-1-yl)methyl)naphtho[1,2-b]furan-2(9bH)-one], the inhibition at 1 µg/mL ([1]; Homo sapiens, 1.0 μg/mL) was 15%.

`CC1(O)CCC[C@]2(C)CCC3=C(CN4CCCCC4)C(=O)OC3=C12` (stereo partly drawn) [Compound-20, (5aR)-5,5a,6,7,8,9-hexahydro-9-hydroxy-5a,9-dimethyl-3-((piperidin-1-yl)methyl)naphtho[1,2-b]furan-2(4H)-one] gave an inhibition at 2 µg/mL ([1]; Homo sapiens, 2.0 μg/mL) of 7%.

With `C=C1C(=O)O[C@H]2C3=C(C)C(=O)CC[C@]3(C)CC[C@@]12O` [Compound-11, (3aR,5aS,9bS)-3a,4,5,5a,6,7-hexahydro-3a-hydroxy-5a,9-dimethyl-3-methylenenaphtho[1,2-b]furan-2,8(3H,9bH)-dione] the inhibition at 2 µg/mL ([1]; Homo sapiens, 2.0 μg/mL) was 8%.

For `CC1=CCC[C@]2(C)CCC3=C(C=O)C(=O)OC3=C12` [Compound-12, (R)-2,4,5,5a,6,7-hexahydro-5a,9-dimethyl-2-oxonaphtho[1,2-b]furan-3-carbaldehyde], the inhibition at 2 µg/mL ([1]; Homo sapiens, 2.0 μg/mL) was 55% and the “% acceleration of lipolysis” value ([2]; 5 μg/mL) was 45.2%.

`C=C1C(=O)OC2C3=C(C)CCCC3(C)CCC12` (centres unmarked) [Compound-1, 3,3a,4,5,5a,6,7,8-octahydro-5a,9-dimethyl-3-methylenenaphtho[1,2-b]furan-2(9bH)-one] was tested, and the inhibition at 2.5 µg/mL ([1]; Homo sapiens) was 19.4% and the “% acceleration of lipolysis” value ([2]; 10 μg/mL) was 44.6%.

With `C=C1C(=O)OC2C1(O)CCC1(C)CCCC3(C)OC213` (centres unmarked) [Compound-13, 4,5-epoxy-7-hydroxyfrullanolide] the “% inhibition of lipid accumulation” value ([1]; 2.0 μg/mL) was 79.7% and the “% acceleration of lipolysis” value ([2]; 5 μg/mL) was 52.8%.

“Piperazine Bis-7-hydroxyfrullanolide [Compound-23]” was tested, and the “% inhibition of lipid accumulation” value ([1]; 1.0 μg/mL) was 15.2%.

Molecule `C=C1C(=O)O[C@H]2C3=C(C)C(O)CC[C@]3(C)CC[C@@]12O` (stereo partly drawn) [Compound-10, (3aR,5aR,9bS)-3,3a,4,5,5a,6,7,8-octahydro-3a,8-dihydroxy-5a,9-dimethyl-3-methylenenaphtho[1,2-b]furan-2(9bH)-one] has an inhibition at 2 µg/mL ([1]; Homo sapiens, 2.0 μg/mL) of 45%.
